Experiments:
Caspase-7 = target: T1, Caspase-7 (Homo sapiens, UniProt P55210); experiment: Inhibitory activity against recombinant human Caspase-7
T1 sequence (P55210 whole entry): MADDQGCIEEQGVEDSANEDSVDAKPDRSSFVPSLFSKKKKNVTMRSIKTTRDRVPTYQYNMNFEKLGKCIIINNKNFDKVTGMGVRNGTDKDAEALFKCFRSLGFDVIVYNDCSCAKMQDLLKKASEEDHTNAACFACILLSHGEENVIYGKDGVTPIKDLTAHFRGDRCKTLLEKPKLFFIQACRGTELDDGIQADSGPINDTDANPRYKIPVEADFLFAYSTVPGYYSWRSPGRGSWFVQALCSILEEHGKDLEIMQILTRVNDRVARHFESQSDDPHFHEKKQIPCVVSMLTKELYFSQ

Caspase-8 = Caspase-8 (Homo sapiens, UniProt Q14790); experiment: Inhibitory activity against recombinant human Caspase-8
Sequence of Caspase-8 (Q14790 217-374 limits assumed): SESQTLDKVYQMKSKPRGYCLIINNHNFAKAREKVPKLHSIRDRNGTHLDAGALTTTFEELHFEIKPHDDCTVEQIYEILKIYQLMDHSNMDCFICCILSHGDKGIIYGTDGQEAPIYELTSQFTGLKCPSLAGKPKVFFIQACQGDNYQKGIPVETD
Sequence of Caspase-8 (Q14790 385-479 limits assumed): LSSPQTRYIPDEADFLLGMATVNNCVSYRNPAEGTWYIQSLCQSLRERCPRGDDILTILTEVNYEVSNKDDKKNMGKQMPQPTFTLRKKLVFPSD

Caspase-3 = target: T2, Caspase-3 (Homo sapiens, UniProt P42574); experiment: Inhibitory activity against recombinant human Caspase-3
T2 sequence (P42574 whole entry): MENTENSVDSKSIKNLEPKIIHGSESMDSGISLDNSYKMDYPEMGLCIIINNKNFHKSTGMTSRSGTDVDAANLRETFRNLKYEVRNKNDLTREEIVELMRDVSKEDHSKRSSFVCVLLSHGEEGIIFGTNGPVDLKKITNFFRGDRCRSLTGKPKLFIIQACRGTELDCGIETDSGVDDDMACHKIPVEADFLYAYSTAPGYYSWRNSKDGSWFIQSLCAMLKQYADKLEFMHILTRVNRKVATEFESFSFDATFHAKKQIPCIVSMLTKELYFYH

Caspase-1 = target: T3, Caspase-1 (Homo sapiens, UniProt P29466); experiment: Inhibitory activity against recombinant human Caspase-1
T3 sequence (P29466 whole entry): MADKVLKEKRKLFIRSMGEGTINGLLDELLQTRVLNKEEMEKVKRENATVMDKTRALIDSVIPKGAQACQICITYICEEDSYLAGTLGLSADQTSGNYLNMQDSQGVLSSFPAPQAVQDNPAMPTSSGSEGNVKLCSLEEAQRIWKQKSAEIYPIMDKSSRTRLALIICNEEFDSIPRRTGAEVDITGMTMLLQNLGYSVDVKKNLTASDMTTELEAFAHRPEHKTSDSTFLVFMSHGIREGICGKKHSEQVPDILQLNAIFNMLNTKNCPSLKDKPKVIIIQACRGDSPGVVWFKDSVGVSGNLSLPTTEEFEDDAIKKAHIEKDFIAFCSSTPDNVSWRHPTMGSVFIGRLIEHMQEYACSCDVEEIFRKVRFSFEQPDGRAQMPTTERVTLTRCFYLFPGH

| Compound | IC50 (Caspase-7) [µM] | IC50 (Caspase-8) [µM] | IC50 (Caspase-3) [µM] | IC50 (Caspase-1) [µM] |
| --- | --- | --- | --- | --- |
| COc1ccc(Br)cc1CC(=O)N[C@H](C(=O)N[C@@H](CC(=O)O)C(=O)CSCc1ccccc1)C(C)C (stereo in doubt; 6) | 0.284 | 1.89 | 0.018 | 3.04 |
| COc1ccc(OC)c(CC(=O)N[C@H](C(=O)N[C@@H](CC(=O)O)C(=O)CSCc2ccccc2)C(C)C)c1 | – | 7.91 | 0.053 | 7.07 |
| COc1ccc(C(C)=O)cc1CC(=O)N[C@H](C(=O)N[C@@H](CC(=O)O)C(=O)CSCc1ccccc1)C(C)C | 0.555 | 3.88 | 0.013 | 6.19 |
| C#CC[C@@H](C(=O)N[C@H](C(=O)N[C@@H](CC(=O)O)C(=O)CSCc1ccccc1)C(C)C)c1cc(Br)ccc1OC (stereo in doubt; 14) | 0.139 | 0.092 | 0.017 | 1.03 |
| COc1ccc(Br)cc1[C@@H](C)C(=O)N[C@H](C(=O)N[C@@H](CC(=O)O)C(=O)CSCc1ccccc1)C(C)C | – | – | – | > 10 |
| COc1ccc(Br)cc1[C@H](C(=O)N[C@H](C(=O)N[C@@H](CC(=O)O)C(=O)CSCc1ccccc1)C(C)C)C(C)C | > 10 | – | – | > 10 |
| CC(C)[C@H](O)C(=O)N[C@H](C(=O)N[C@@H](CC(=O)O)C(=O)CSCc1ccccc1)C(C)C | 3.4 | 7.34 | 0.118 | 3.01 |
| COc1ccc(Br)cc1CC(=O)N[C@H](C(=O)N[C@@H](CC(=O)O)C(=O)CSCc1ccccc1)C(C)C (stereo in doubt; 29) | 0.285 | 1.89 | 0.018 | – |
| CC(C)[C@H](NC(=O)C(O)(C(F)(F)F)C(F)(F)F)C(=O)N[C@@H](CC(=O)O)C(=O)CSCc1ccccc1 | > 10 | > 10 | 0.146 | > 10 |
| CC(C)[C@H](NC(=O)[C@H](O)C(C)C)C(=O)N[C@@H](CC(=O)O)C(=O)CSCc1ccccc1 | > 10 | 7.27 | 0.33 | > 10 |
| CCC[C@@H](C(=O)N[C@H](C(=O)N[C@@H](CC(=O)O)C(=O)CSCc1ccccc1)C(C)C)c1cc(Br)ccc1OC | – | – | – | > 10 |
| COc1ccc(-c2nc(C)no2)cc1CC(=O)N[C@H](C(=O)N[C@@H](CC(=O)O)C(=O)CSCc1ccccc1)C(C)C | 0.097 | 3.29 | 0.009 | 5.45 |
| C#CC[C@@H](C(=O)N[C@H](C(=O)N[C@@H](CC(=O)O)C(=O)CSCc1ccccc1)C(C)C)c1cc(Br)ccc1OC (stereo in doubt; 13) | 3.62 | 4.47 | 0.341 | > 10 |
| COc1ccc(Br)cc1[C@H](C(=O)N[C@H](C(=O)N[C@@H](CC(=O)O)C(=O)CSCc1ccccc1)C(C)C)C1CC1 | > 10 | > 10 | 0.323 | > 10 |

The remaining lines, values ahead:

| IC50 (Caspase-7) [µM] | IC50 (Caspase-8) [µM] | IC50 (Caspase-3) [µM] | IC50 (Caspase-1) [µM] | Compound |
| --- | --- | --- | --- | --- |
| > 10 | > 10 | 1.29 | > 10 | CC(C)[C@H](NC(=O)C(O)(c1ccccc1)c1ccccc1)C(=O)N[C@@H](CC(=O)O)C(=O)CSCc1ccccc1 |
| 10.9 | 3.65 | 0.1 | 4.06 | CC(C)[C@H](NC(=O)C(O)c1ccccc1)C(=O)N[C@@H](CC(=O)O)C(=O)CSCc1ccccc1 (single isomer, unassigned) |
| > 10 | 9.17 | 0.425 | > 10 | CO[C@H](C(=O)N[C@H](C(=O)N[C@@H](CC(=O)O)C(=O)CSCc1ccccc1)C(C)C)c1ccccc1 |
| – | 22.1 | – | 21.2 | CC(C)[C@H](NC(=O)Cc1ccccc1)C(=O)N[C@@H](CC(=O)O)C(=O)CSCc1ccccc1 |
| 2.76 | 8 | 0.085 | 18.9 | CC(C)[C@H](NC(=O)C(C)(O)c1ccccc1)C(=O)N[C@@H](CC(=O)O)C(=O)CSCc1ccccc1 (stereo not given in full) |
| 10.9 | 13.8 | 0.467 | 18.4 | CC(C)[C@H](NC(=O)C(C)(C)O)C(=O)N[C@@H](CC(=O)O)C(=O)CSCc1ccccc1 |
| 5.09 | 12.3 | 0.16 | 9.59 | CC(C)[C@H](NC(=O)C1(O)CC1)C(=O)N[C@@H](CC(=O)O)C(=O)CSCc1ccccc1 |
| 1.05 | 1.15 | 0.041 | 4.16 | CC(C)[C@H](NC(=O)[C@H](O)c1ccccc1)C(=O)N[C@@H](CC(=O)O)C(=O)CSCc1ccccc1 |
| > 10 | 9.58 | 2.02 | > 10 | CCC(O)(CC)C(=O)N[C@H](C(=O)N[C@@H](CC(=O)O)C(=O)CSCc1ccccc1)C(C)C |

From ChEMBL document CHEMBL1142798, “Lipophilic versus hydrogen-bonding effect in P3 on potency and selectivity of valine aspartyl ketones as caspase 3 inhibitors” (Bioorg Med Chem Lett, 2005)
